Experimental data from US10844077B2, “Thiazolyl-containing compounds for treating proliferative diseases” (Dana-Farber Cancer Institute, Inc., priority 2014, dated 2020).
Several values for one entry are separate records, joined by “and”; a condition that tells them apart may be missing. Identical values can stand only once.

Tests used:
Assay in all cases: KINATIV assay of compounds I-3 and I-9, lysate directly labeled with ATP-biotin probe (no GF)
Assay type in all cases: cell-based
kinases in BCWM.1 cells [1] = target: kinases in BCWM.1 cells (Homo sapiens, UniProt Q9UKE5); details: ZC2/TNIK; Lys1; 1 μM, 90 min; no GF
Procedure: (§1) The cells were harvested and lysed. […] Bound kinases were identified and quantitated by ACTIVX as described in Patricelli et al., Biochemistry, 2007, 46(2): 350-358. The compounds were tested in duplicates against duplicate or quadruplicate control samples.

kinases in BCWM.1 cells [2] = target: kinases in BCWM.1 cells (Homo sapiens, UniProt Q86UE8); details: TLK2; Lys2; 1 μM, 90 min; no GF
Procedure: as §1

kinases in BCWM.1 cells [3] = target: kinases in BCWM.1 cells (Homo sapiens, UniProt Q9H2G2); details: SLK; Lys2; 1 μM, 90 min; no GF
Procedure: as §1

kinases in BCWM.1 cells [4] = target: kinases in BCWM.1 cells (Homo sapiens, UniProt P51812); details: Lys2, 1 μM, 90 min, no GF
Procedure: as §1

kinases in BCWM.1 cells [5] = target: kinases in BCWM.1 cells (Homo sapiens, UniProt P51957); details: NEK4; Lys2; 1 μM, 90 min; no GF
Procedure: as §1

kinases in BCWM.1 cells [6] = target: kinases in BCWM.1 cells (Homo sapiens, UniProt P42680); details: TEC; Activation Loop; 1 μM, 90 min; no GF
Procedure: as §1

kinases in BCWM.1 cells [7] = target: kinases in BCWM.1 cells (Homo sapiens, UniProt Q9Y2H1); details: NDR2; Lys2; 1 μM, 90 min; no GF
Procedure: as §1

kinases in BCWM.1 cells [8] = target: kinases in BCWM.1 cells (Homo sapiens, UniProt Q9BYT3); details: STK33; Lys2; 1 μM, 90 min; no GF
Procedure: as §1

kinases in BCWM.1 cells [9] = target: kinases in BCWM.1 cells (Homo sapiens, UniProt P19525); details: PKR; Lys2; 1 μM, 90 min; no GF
Procedure: as §1

kinases in BCWM.1 cells [10] = target: kinases in BCWM.1 cells (Homo sapiens, UniProt Q8TD19); details: NEK9; Lys2; 1 μM, 90 min; no GF
Procedure: as §1

kinases in BCWM.1 cells [11] = target: kinases in BCWM.1 cells (Homo sapiens, UniProt Q9UBE8); details: NLK; Lys2; 1 μM, 90 min; no GF
Procedure: as §1

kinases in BCWM.1 cells [12] = target: kinases in BCWM.1 cells (Homo sapiens, UniProt Q96S38); details: RSKL1; ATP; 1 μM, 90 min; no GF
Procedure: as §1

kinases in BCWM.1 cells [13] = target: kinases in BCWM.1 cells (Homo sapiens, UniProt P23443); details: p70S6K; Lys2; 1 μM, 90 min; no GF
Procedure: as §1

kinases in BCWM.1 cells [14] = target: kinases in BCWM.1 cells (Homo sapiens, UniProt Q9BZL6); details: PKD2; Lys1; 1 μM, 90 min; no GF
Procedure: as §1

kinases in BCWM.1 cells [15] = target: kinases in BCWM.1 cells (Homo sapiens, UniProt O00329); details: PIK3CD; ATP; 1 μM, 90 min; no GF
Procedure: as §1

kinases in BCWM.1 cells [16] = target: kinases in BCWM.1 cells (Homo sapiens, UniProt Q9UBF8); details: PI4KB; ATP; 1 μM, 90 min; no GF
Procedure: as §1

kinases in BCWM.1 cells [17] = target: kinases in BCWM.1 cells (Homo sapiens, UniProt P48426); details: PIP4K2A; ATP; 1 μM, 90 min; no GF
Procedure: as §1

kinases in BCWM.1 cells [18] = details: 1 μM, no GF
Procedure: as §1

kinases in BCWM.1 cells [19] = target: kinases in BCWM.1 cells (Homo sapiens, UniProt Q9Y572); details: RIPK3; Lys2; 1 μM, 90 min; no GF
Procedure: as §1

kinases in BCWM.1 cells [20] = target: kinases in BCWM.1 cells (Homo sapiens, UniProt O95747); details: OSR1; Lys2; 1 μM, 90 min; no GF
Procedure: as §1

kinases in BCWM.1 cells [21] = target: kinases in BCWM.1 cells (Homo sapiens, UniProt Q16816); details: PHKg1; Protein Kinase Domain; 1 μM, 90 min; no GF
Procedure: as §1

kinases in BCWM.1 cells [22] = target: kinases in BCWM.1 cells (Homo sapiens, UniProt Q8NEB9); details: PIK3C3; ATP; 1 μM, 90 min; no GF
Procedure: as §1

kinases in BCWM.1 cells [23] = target: kinases in BCWM.1 cells (Homo sapiens, UniProt Q14289); details: PYK2; Activation Loop; 1 μM, 90 min; no GF
Procedure: as §1

kinases in BCWM.1 cells [24] = target: kinases in BCWM.1 cells (Homo sapiens, UniProt Q16539); details: p38a, 1 μM, 90 min, no GF
Procedure: as §1

kinases in BCWM.1 cells [25] = target: kinases in BCWM.1 cells (Homo sapiens, UniProt P29597); details: TYK2 domain2; Activation Loop; 1 μM, 90 min; no GF
Procedure: as §1

kinases in BCWM.1 cells [26] = target: kinases in BCWM.1 cells (Homo sapiens, UniProt Q9UBS0); details: p70S6Kb; Lys2; 1 μM, 90 min; no GF
Procedure: as §1

kinases in BCWM.1 cells (Homo sapiens, UniProt Q16539), sequence (Q16539 2-360 limits assumed): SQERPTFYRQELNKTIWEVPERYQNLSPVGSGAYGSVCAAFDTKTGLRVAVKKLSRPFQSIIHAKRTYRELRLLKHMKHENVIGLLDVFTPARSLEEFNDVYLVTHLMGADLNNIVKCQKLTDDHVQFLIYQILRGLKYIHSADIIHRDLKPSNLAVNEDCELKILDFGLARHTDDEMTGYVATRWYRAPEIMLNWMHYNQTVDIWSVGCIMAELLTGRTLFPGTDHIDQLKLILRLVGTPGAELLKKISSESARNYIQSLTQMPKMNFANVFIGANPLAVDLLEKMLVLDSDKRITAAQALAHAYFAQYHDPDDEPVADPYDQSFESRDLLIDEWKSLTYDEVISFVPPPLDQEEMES
kinases in BCWM.1 cells (Homo sapiens, UniProt Q9UBF8), sequence (Q9UBF8 2-816 limits assumed): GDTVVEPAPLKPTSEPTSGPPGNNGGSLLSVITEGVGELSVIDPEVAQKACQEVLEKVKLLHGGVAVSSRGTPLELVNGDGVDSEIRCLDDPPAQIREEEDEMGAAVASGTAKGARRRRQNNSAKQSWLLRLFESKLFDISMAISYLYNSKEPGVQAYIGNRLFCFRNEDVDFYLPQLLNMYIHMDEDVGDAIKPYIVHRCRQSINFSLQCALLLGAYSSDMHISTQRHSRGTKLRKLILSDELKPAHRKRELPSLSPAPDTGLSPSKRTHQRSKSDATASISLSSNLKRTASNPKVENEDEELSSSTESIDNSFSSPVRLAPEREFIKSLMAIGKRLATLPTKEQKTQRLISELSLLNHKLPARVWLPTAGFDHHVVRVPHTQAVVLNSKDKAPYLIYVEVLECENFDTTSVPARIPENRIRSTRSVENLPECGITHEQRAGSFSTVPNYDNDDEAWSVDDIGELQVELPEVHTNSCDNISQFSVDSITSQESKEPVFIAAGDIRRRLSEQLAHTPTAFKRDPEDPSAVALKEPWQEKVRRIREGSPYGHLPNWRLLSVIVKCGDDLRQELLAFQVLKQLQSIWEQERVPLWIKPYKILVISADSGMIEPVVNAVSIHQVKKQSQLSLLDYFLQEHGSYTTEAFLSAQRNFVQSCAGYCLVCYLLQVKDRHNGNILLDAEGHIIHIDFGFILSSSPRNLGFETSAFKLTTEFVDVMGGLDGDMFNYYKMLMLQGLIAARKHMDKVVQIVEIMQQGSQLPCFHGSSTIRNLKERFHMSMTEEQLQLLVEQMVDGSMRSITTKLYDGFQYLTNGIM
kinases in BCWM.1 cells (Homo sapiens, UniProt P19525), sequence (P19525 2-551 limits assumed): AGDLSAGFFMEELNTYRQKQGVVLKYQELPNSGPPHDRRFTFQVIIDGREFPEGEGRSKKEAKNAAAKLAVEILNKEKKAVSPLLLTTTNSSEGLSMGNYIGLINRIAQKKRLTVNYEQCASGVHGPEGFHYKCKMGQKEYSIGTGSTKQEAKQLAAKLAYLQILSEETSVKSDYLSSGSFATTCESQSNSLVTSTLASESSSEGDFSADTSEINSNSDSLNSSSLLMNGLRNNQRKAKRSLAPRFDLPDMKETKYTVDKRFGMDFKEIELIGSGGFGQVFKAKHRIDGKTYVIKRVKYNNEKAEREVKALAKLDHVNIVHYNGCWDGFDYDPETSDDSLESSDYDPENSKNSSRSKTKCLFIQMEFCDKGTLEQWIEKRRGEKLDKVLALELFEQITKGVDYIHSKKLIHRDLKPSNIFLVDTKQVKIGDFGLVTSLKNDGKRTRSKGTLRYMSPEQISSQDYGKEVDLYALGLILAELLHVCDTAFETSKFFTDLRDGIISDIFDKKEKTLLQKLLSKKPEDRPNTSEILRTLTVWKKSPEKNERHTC
kinases in BCWM.1 cells (Homo sapiens, UniProt Q9Y2H1), sequence (Q9Y2H1 2-464 limits assumed): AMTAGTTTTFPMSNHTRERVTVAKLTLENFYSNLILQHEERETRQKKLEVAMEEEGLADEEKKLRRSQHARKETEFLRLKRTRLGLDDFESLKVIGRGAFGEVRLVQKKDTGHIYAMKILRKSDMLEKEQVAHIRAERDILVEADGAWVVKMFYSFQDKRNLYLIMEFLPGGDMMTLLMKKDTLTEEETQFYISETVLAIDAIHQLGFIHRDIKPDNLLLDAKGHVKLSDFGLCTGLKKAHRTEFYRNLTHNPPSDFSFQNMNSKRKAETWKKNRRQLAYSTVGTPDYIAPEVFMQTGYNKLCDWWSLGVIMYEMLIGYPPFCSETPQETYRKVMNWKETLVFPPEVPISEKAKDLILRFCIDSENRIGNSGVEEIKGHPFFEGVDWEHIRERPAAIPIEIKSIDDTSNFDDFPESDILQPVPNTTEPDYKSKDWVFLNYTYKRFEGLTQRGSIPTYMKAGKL
kinases in BCWM.1 cells (Homo sapiens, UniProt Q8TD19), sequence (Q8TD19 2-979 limits assumed): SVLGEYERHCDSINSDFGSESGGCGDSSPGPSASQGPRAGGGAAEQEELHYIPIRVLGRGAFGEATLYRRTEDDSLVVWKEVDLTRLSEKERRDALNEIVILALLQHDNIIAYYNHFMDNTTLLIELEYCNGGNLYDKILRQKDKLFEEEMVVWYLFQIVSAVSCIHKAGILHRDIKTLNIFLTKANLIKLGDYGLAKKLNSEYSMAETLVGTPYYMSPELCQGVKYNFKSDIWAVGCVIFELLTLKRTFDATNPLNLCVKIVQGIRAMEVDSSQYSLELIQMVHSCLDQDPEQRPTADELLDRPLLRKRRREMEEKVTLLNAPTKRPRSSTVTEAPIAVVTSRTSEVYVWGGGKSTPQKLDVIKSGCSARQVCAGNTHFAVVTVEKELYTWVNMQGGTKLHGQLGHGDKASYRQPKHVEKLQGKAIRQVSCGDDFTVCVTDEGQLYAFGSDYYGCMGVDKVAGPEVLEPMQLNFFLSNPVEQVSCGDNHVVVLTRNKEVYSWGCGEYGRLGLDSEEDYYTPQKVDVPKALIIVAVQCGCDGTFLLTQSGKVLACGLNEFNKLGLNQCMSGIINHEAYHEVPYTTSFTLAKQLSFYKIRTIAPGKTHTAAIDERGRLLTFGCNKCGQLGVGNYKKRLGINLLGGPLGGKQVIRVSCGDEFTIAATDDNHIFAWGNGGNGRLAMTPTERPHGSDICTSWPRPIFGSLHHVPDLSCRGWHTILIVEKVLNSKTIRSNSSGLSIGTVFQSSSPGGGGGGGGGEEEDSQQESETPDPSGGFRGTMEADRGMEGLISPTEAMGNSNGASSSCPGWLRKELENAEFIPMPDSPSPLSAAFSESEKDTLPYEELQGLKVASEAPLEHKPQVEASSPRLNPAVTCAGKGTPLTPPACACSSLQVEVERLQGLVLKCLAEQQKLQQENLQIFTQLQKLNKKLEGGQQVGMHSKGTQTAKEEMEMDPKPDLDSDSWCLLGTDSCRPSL
kinases in BCWM.1 cells (Homo sapiens, UniProt P48426), sequence (P48426 2-406 limits assumed): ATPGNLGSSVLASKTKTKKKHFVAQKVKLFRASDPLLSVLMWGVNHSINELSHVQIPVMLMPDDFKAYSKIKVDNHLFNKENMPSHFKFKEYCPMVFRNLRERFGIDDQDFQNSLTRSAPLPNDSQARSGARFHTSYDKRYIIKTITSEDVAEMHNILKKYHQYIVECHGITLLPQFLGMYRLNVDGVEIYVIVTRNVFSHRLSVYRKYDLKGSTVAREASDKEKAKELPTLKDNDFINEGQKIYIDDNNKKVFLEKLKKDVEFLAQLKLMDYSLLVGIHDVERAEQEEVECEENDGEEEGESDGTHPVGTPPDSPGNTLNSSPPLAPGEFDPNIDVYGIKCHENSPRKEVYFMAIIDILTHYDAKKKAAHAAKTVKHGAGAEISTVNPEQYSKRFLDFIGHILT
kinases in BCWM.1 cells (Homo sapiens, UniProt O95747), sequence (O95747 2-527 limits assumed): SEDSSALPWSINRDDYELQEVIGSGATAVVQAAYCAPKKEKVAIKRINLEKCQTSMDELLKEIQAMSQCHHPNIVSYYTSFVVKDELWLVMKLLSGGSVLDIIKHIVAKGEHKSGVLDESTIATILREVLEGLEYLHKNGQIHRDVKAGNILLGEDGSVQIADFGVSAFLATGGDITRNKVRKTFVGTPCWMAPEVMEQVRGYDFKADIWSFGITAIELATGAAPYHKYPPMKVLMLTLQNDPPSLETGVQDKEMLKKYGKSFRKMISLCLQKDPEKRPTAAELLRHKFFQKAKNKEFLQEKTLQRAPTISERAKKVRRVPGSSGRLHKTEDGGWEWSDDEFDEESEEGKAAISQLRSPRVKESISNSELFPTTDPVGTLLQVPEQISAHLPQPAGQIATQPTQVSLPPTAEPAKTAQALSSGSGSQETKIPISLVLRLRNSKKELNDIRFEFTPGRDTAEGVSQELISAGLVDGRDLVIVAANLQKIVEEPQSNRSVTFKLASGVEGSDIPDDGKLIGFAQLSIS

Q: Which “% change of MS signal compared to control sample” value (from here on “% change of MS signal”) (kinases in BCWM.1 cells [1]) does the source give for C=CC(=O)N1CC[C@H](Nc2nccc(Nc3ncc(C(=O)Nc4c(C)cccc4C)s3)n2)C1 [Example I-3] here?
A: −15.6%

Q: What about the “% change of MS signal” value (kinases in BCWM.1 cells [2]) of the same compound?
A: −3%

Q: What about the “% change of MS signal” value (kinases in BCWM.1 cells [3]) of the same compound?
A: 13%

Q: And the “% change of MS signal” value (kinases in BCWM.1 cells [4]; RSK2 domain1)?
A: −2%

Q: What about the “% change of MS signal” value (kinases in BCWM.1 cells [4]; RSK2 domain2) of the same compound?
A: −10.2%

Q: What about the “% change of MS signal” value (kinases in BCWM.1 cells [5]) of the same compound?
A: 10.1%

Q: What about the “% change of MS signal” value (kinases in BCWM.1 cells [6]) of the same compound?
A: >91%

Q: What about the “% change of MS signal” value (kinases in BCWM.1 cells [7]) of the same compound?
A: 11.6%

Q: What about the “% change of MS signal” value (kinases in BCWM.1 cells [8]) of the same compound?
A: −6.1%

Q: And the “% change of MS signal” value (kinases in BCWM.1 cells [9])?
A: −3.6%

Q: What about the “% change of MS signal” value (kinases in BCWM.1 cells [10]) of the same compound?
A: 15.4%

Q: And the “% change of MS signal” value (kinases in BCWM.1 cells [11])?
A: 66.2%

Q: And the “% change of MS signal” value (kinases in BCWM.1 cells [12])?
A: −17%

Q: What about the “% change of MS signal” value (kinases in BCWM.1 cells [13]) of the same compound?
A: −77.2%

Q: And the “% change of MS signal” value (kinases in BCWM.1 cells [14])?
A: 5.5%

Q: And the “% change of MS signal” value (kinases in BCWM.1 cells [15])?
A: −3.4%

Q: And the “% change of MS signal” value (kinases in BCWM.1 cells [16])?
A: 6.4%

Q: And the “% change of MS signal” value (kinases in BCWM.1 cells [17])?
A: −4.9%

Q: What about the “% change of MS signal” value (kinases in BCWM.1 cells [18]; ABL, ARG, Activation Loop) of the same compound?
A: 75.4% and 93.5%

Q: And the “% change of MS signal” value (kinases in BCWM.1 cells [18]; ABL, ARG, Lys1)?
A: 86.9% and 93.2%

Q: What about the “% change of MS signal” value (kinases in BCWM.1 cells [18]; AKT2, AKT3, ATP Loop) of the same compound?
A: −19.2% and −14.5%

Q: And the “% change of MS signal” value (kinases in BCWM.1 cells [18]; AurA, AurB, AurC, ATP Loop)?
A: 7.7% and 4.7%

Q: What about the “% change of MS signal” value (kinases in BCWM.1 cells [18]; FYN, SRC, YES, Activation Loop) of the same compound?
A: 87.3% and 85.7%

Q: What about the “% change of MS signal” value (kinases in BCWM.1 cells [18]; MARK3, MARK4, Lys1) of the same compound?
A: 2.5% and −4%

Q: What about the “% change of MS signal” value (kinases in BCWM.1 cells [18]; MER, TYRO3, Activation Loop) of the same compound?
A: 2.4% and 0.4%

Q: What about the “% change of MS signal” value (kinases in BCWM.1 cells [18]; MST4, YSK1, Lys2, 90 min) of the same compound?
A: 18.1%

Q: And the “% change of MS signal” value (kinases in BCWM.1 cells [18]; NEK6, NEK7, Lys2, 90 min)?
A: 6.4%

Q: And the “% change of MS signal” value (kinases in BCWM.1 cells [18]; PCTAIRE2, PCTAIRE3, Lys1, 90 min)?
A: −0.4%

Q: And the “% change of MS signal” value (kinases in BCWM.1 cells [18]; PI4KA, PI4KAP2, ATP, 90 min)?
A: −3.7%

Q: And the “% change of MS signal” value (kinases in BCWM.1 cells [18]; PKACa, PKCb, Lys2, 90 min)?
A: 2.4%

Q: And the “% change of MS signal” value (kinases in BCWM.1 cells [18]; ROCK1, ROCK2, Lys2, 90 min)?
A: −22.2%

Q: What about the “% change of MS signal” value (kinases in BCWM.1 cells [18]; RSK1 domain1, RSK2 domain1, RSK3 domain1, Lys2, 90 min) of the same compound?
A: −14.8%

Q: What about the “% change of MS signal” value (kinases in BCWM.1 cells [18]; SRPK1, SRPK2, Lys1, 90 min) of the same compound?
A: −3%

Q: And the “% change of MS signal” value (kinases in BCWM.1 cells [18]; TAO1, TAO3, Lys2, 90 min)?
A: 7.8%

Q: And the “% change of MS signal” value (kinases in BCWM.1 cells [18]; Wnk1, Wnk2, Wnk3, Lys2, 90 min)?
A: 14.9%

Q: What about the “% change of MS signal” value (kinases in BCWM.1 cells [18]; Wnk1, Wnk2, ATP Loop, 90 min) of the same compound?
A: 13.1%

Q: What about the “% change of MS signal” value (kinases in BCWM.1 cells [18]; ZC1/HGK, ZC2/TNIK, ZC3/MINK, Lys2, 90 min) of the same compound?
A: 2.7%

Q: What about the “% change of MS signal” value (kinases in BCWM.1 cells [18]; p38d, p38g, Lys2, 90 min) of the same compound?
A: 5.7%

Q: What about the “% change of MS signal” value (kinases in BCWM.1 cells [19]) of the same compound?
A: 13.4%

Q: And the “% change of MS signal” value (kinases in BCWM.1 cells [20])?
A: 13.8%

Q: And the “% change of MS signal” value (kinases in BCWM.1 cells [21])?
A: 31.7%

Q: And the “% change of MS signal” value (kinases in BCWM.1 cells [22])?
A: 2.4%

Q: What about the “% change of MS signal” value (kinases in BCWM.1 cells [23]) of the same compound?
A: 1%

Q: And the “% change of MS signal” value (kinases in BCWM.1 cells [24]; Lys2)?
A: 43.5%

Q: What about the “% change of MS signal” value (kinases in BCWM.1 cells [24]; Protein Kinase Domain) of the same compound?
A: 32.6%

Q: And the “% change of MS signal” value (kinases in BCWM.1 cells [25])?
A: −10.1%

Q: What about the “% change of MS signal” value (kinases in BCWM.1 cells [26]) of the same compound?
A: −36.7%
